Test [1] concerns the target recombinant human FGFR2 cytoplasmic domain (Homo sapiens (Human), UniProt P21802). Nature of the test: FGFR Enzyme Activity Assay (LanthaScreen TR-FRET), FGFR2. Format: biochemical. To be noted: 15 μM ATP, 20 minute incubation; read-out: FGFR2 Enz FRET IC50. The method, then: FGFR2 kinase activity was measured by the Invitrogen LanthaScreen™ Assay technology which directly measures the amount of substrate phosphorylation by TR-FRET using a flourescently-labeled peptide and Europium-labeled antibody. Briefly, 200 pM His-tagged recombinant human FGFR2 cytoplasmic domain (amino acids 403-822) (Life Technologies Cat. No. PR5332A) was incubated with 100 nM Alexa Fluor® 647-Poly-GT Peptide Substrate (Life Technologies Cat. No. PV5836) and 15 μM ATP along with test compound in a buffer consisting of 250 mM HEPES, 25 mM MgCl2, 0.05% TritonX-100, pH 7.5, and 2% DMSO. Compounds were typically prepared in a threefold serial dilution in DMSO and added to the assay to give the appropriate final concentration. After a 20 minute incubation at 22° C., an equal volume of 2 nM LanthaScreen® Eu-PY20 Antibody (Life Technologies Cat. No. PV5691) and 10 mM EDTA were added to quench the kinase reaction and start the detection reaction. After an additional 60 minute incubation at 22° C., the reaction was measured using a PerkinElmer EnVision multimode plate reader via TR-FRET dual wavelength detection, and the percent of control (POC) calculated using a ratiometric emission factor. 100 POC was determined using no test compounds and 0 POC was determined using no enzyme. The POC values were fit to a 4-parameter logistic curve as a function of the concentration of the compound, and the IC50 value is the point where the curve crosses 50 POC.

The target of test [2] is FGFR1 (Homo sapiens (Human), UniProt P11362). Nature of the test: LC/MS FGFR1 kobs assay (covalent modification). Format: biochemical. To be noted: 500 nM FGFR1, 3 μM compound. The procedure: The LC/MS FGFR1 and FGFR3 kobs assays were conducted as follows. 500 nM FGFR1 (Array BioPharma construct p1702; SEQ ID NO: 1, amino acids 458-765) or FGFR3 (Array BioPharma construct p1700; SEQ ID NO: 5, amino acids 449-759) were incubated with 3 μM compound in 25 mM HEPES (4-(2-hydroxyethyl)-1-piperazineethanesulfonic acid), pH 7.4, 5 mM MgCl2, 150 mM NaCl, 0.5 mM TCEP (tris(2-carboxyethyl) phosphine), and 2% DMSO in a total volume of 20 μL. At each time point, the reaction was quenched with 20 μL of 0.4% formic acid. The extent of protein modification by each compound was determined by LC/MS on an Agilent Technologies 6520 Q-TOF LC/MS. Protein signals were then automatically deconvoluted using Agilent Masshunter software. Deconvoluted mass signals were exported to Tibco Spotfire data analysis program for further processing and normalization.
Data analysis included five steps. First, the signals for the “DMSO Controls” were analyzed to determine the percent of signal associated with unmodified FGFR1 or FGFR3 at each time point. Next, the percent of the signal associated with the covalent modification was determined. Third, the average nonmodified “DMSO Control” signal was used to normalize the modified protein signals at each time point. The percent of unmodified protein was fit to an exponential decay model where A0 is the Percent Unmodified at the start of the reaction, and kobs is the observed rate constant over the time period.

Test [3] has as its target human wild type FGFR1 (Homo sapiens (Human), UniProt P11362). Nature of the test: FGFR1 pERK Cell Assay. To be noted: HEK-293 cells, 1 hour compound, 100 ng/ml human FGF-acidic; maximum concentration 5 μM. Format: cell-based. The method, then:
(§1) HEK-293 cells transfected with doxycycline(dox)-inducible human wild type FGFR1 (SEQ ID NO: 1) were plated in a collagen or poly-D-lysine coated 96 well flat bottom plates at 4×10^5 cells/well in complete Dulbecco's Modified Eagle Medium (DMEM) containing 10% FBS and 1 μg/ml doxycycline and allowed to attach for 24 h at 37° C., 5% CO2. Cells were treated with compound using 1:3 serial dilutions with a maximum final concentration of 5 μM. Compound was incubated on cells for 1 hour at 37° C., 5% CO2. Cells were then stimulated with a final concentration of 100 ng/ml human FGF-acidic (R&D Systems Cat number 232-FA/CF) for 5 minutes at 37° C., 5% CO2. Medium was removed, and cells were lysed with lysis buffer containing phosphatase and protease inhibitors. Phospho ERK1/2 was measured using the Meso Scale Discovery sandwich assay (Meso Scale Discovery cat. no. K151DWD). The assay captures phospho ERK1/2 and detects with a sulfo-tagged total ERK1/2 antibody. The chemiluminescent signal was read on the Sector Imager Plate reader. 100 POC was determined using no test compound and 0 POC was determined using a control compound. The POC values were fit to a 4-parameter logistic curve as a function of the concentration of the compound, and the IC50 value is the point where the curve crosses 50 POC.

The target in test [4] is human wild type FGFR3 (Homo sapiens (Human), UniProt P22607). Nature of the test: FGFR3 pERK Cell Assay. Format: cell-based. To be noted: HEK-293 cells, 1 hour compound, 100 ng/ml human FGF-acidic; maximum concentration 5 μM. The method, then: as §1, with “with dox-inducible” for “with doxycycline(dox)-inducible”, “type FGFR3” for “type FGFR1”, “NO: 5)” for “NO: 1)”, “complete DMEM medium” for “complete Dulbecco's Modified Eagle Medium (DMEM)”, “test compounds” for “test compound”
human wild type FGFR3, sequence (P22607 23-806): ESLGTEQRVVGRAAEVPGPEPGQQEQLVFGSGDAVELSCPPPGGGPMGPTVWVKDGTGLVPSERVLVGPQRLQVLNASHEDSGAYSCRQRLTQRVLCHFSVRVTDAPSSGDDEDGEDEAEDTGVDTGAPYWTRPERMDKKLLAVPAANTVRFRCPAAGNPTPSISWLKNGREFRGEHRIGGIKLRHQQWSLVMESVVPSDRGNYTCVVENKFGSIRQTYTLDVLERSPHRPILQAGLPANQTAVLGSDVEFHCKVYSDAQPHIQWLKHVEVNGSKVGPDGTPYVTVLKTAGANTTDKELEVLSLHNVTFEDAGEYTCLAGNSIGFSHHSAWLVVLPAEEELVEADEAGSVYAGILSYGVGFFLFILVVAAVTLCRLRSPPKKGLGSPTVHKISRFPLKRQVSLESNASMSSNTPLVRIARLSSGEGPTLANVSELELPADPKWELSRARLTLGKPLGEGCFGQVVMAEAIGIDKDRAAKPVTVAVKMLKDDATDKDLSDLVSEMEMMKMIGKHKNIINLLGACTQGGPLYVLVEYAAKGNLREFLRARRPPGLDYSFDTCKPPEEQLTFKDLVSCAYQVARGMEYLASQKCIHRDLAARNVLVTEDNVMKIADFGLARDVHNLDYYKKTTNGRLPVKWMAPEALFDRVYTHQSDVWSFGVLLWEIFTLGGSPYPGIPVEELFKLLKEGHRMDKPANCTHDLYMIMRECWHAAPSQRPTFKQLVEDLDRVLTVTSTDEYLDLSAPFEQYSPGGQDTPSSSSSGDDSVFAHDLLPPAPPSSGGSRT

FGFR1, sequence (P11362 458-765): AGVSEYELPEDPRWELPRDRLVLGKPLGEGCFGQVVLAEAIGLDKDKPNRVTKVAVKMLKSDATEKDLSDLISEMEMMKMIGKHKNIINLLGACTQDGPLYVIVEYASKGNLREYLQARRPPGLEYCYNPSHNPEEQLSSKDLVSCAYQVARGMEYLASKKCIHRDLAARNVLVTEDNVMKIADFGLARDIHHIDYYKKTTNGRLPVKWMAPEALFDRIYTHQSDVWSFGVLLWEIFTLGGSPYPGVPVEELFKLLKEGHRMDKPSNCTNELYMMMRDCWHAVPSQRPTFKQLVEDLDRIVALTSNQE
human wild type FGFR1, sequence (P11362 22-822): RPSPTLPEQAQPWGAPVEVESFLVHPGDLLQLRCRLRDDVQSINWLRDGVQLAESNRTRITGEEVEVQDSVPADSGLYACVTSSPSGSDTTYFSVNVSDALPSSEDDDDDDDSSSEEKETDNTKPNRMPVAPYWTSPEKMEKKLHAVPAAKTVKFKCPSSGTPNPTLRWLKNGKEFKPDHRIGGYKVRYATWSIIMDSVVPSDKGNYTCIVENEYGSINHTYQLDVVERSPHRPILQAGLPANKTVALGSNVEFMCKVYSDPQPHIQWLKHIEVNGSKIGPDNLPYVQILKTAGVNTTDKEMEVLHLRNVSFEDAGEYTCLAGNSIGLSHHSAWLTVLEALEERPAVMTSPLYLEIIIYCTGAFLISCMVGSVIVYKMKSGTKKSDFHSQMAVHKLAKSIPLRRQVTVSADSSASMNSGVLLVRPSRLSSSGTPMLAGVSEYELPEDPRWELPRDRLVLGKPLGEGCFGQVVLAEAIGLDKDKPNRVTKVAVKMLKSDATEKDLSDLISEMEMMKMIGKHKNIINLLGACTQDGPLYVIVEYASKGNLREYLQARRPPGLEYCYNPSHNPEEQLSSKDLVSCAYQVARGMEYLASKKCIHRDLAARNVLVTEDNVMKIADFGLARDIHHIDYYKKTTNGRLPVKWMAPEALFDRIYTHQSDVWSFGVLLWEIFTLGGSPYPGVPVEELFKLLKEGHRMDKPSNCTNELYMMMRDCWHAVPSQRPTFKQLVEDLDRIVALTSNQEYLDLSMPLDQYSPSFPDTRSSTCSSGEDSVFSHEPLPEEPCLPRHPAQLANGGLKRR
recombinant human FGFR2 cytoplasmic domain, sequence (P21802 402-821): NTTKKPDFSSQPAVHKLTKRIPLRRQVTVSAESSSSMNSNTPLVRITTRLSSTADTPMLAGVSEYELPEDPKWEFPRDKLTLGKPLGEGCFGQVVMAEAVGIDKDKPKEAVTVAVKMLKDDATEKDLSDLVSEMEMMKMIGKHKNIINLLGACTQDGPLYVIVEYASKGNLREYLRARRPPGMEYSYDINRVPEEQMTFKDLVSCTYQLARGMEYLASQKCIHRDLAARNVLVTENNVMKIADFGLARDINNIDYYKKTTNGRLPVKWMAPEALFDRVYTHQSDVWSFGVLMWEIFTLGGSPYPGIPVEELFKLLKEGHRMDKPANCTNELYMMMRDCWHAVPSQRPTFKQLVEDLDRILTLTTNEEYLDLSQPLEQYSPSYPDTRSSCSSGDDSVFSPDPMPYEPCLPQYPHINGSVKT

Consider `COc1cc(Nc2ccc3ncc(-c4c(C)nn(C5CCN(C(=O)C6(F)CN(C(=O)/C=C/CN(C)C)C6)CC5)c4C)nc3c2)cc(OC)c1` [Example 23, (E)-1-(3-(4-(4-(7-((3,5-dimethoxyphenyl)amino)-quinoxalin-2-yl)-3,5-dimethyl-1H-pyrazol-1-yl)piperidine-1-carbonyl)-3-fluoroazetidin-1-yl)-4-(dimethylamino)but-2-en-1-one], for which the half-inhibitory concentration (IC50) (commonly the concentration that inhibits the measured activity by half) in test [1] came to 3460 nM; in test [3], 1940 nM; in test [4] it was 699 nM. In test [2], the “FGFR1 Enz kobs” value stood at 0.00386 min⁻¹.

As for `C=CC(=O)N1CC(OC)(C(=O)N2CCC(n3cc(-c4cnc5ccc(Nc6cc(OC)cc(OC)c6)cc5n4)cn3)CC2)C1` [Example 24, 1-(3-(4-(4-(7-((3,5-dimethoxyphenyl)amino)-quinoxalin-2-yl)-1H-pyrazol-1-yl)piperidine-1-carbonyl)-3-methoxy-azetidin-1-yl)prop-2-en-1-one], the IC50 in test [1] is 211 nM; in test [3] it was 225 nM; in test [4] it was 19 nM. For the same compound, in test [2], the “FGFR1 Enz kobs” value came to 0.00223 min⁻¹.

For the compound `C=CC(=O)N1CC(O)(C(=O)N2CCC(n3cc(-c4cnc5ccc(Nc6cc(OC)cc(OC)c6)cc5n4)cn3)CC2)C1` [Example 26, 1-(3-(4-(4-(7-((3,5-dimethoxyphenyl)amino)quinoxalin-2-yl)-1H-pyrazol-1-yl)piperidine-1-carbonyl)-3-hydroxyazetidin-1-yl)prop-2-en-1-one], the values for the IC50 in test [1], in test [3] and in test [4] were 121 nM, 1650 nM and 153 nM, respectively. Further, the “FGFR1 Enz kobs” value in test [2] amounted to 0.00288 min⁻¹.

In the case of `C=CC(=O)N1CC(O)(C(=O)N2CCC(n3cc(-c4cnc5ccc(N(C)c6cc(OC)cc(OC)c6)cc5n4)cn3)CC2)C1` [Example 27, 1-(3-(4-(4-(7-((3,5-dimethoxyphenyl)(methyl)amino)quinoxalin-2-yl)-1H-pyrazol-1-yl)piperidine-1-carbonyl)-3-hydroxyazetidin-1-yl)prop-2-en-1-one], the half-inhibitory concentration (IC50) in test [1] turned out to be 12 nM; in test [3] it was 128 nM; in test [4], 12 nM. The “FGFR1 Enz kobs” value in test [2] is 0.00264 min⁻¹.

Turning to `C#CCN(c1cc(OC)cc(OC)c1)c1ccc2ncc(-c3cnn(C4CCN(C(=O)C5(F)CN(C(=O)/C=C/CN(C)C)C5)CC4)c3)nc2c1` [Example 28, (E)-1-(3-(4-(4-(7-((3,5-dimethoxyphenyl)(prop-2-yn-1-yl)amino)quinoxalin-2-yl)-1H-pyrazol-1-yl)piperidine-1-carbonyl)-3-fluoroazetidin-1-yl)-4-(dimethylamino)but-2-en-1-one], the IC50 in test [1] amounted to 5 nM; in test [3], 34 nM; in test [4] it was 8 nM. Further, in test [2], the “FGFR1 Enz kobs” value stood at 0.01569 min⁻¹.

As for `C=CC(=O)N1CC(CN2CCC(n3cc(-c4cnc5ccc(Nc6cc(OC)cc(OC)c6)cc5n4)cn3)CC2)(OC)C1` [Example 29, 1-(3-((4-(4-(7-((3,5-dimethoxyphenyl)amino)quinoxalin-2-yl)-1H-pyrazol-1-yl)piperidin-1-yl)methyl)-3-methoxyazetidin-1-yl)prop-2-en-1-one], the IC50 came to 333 nM in test [1], 206 nM in test [3] and 25 nM in test [4]. For the same compound, in test [2], the “FGFR1 Enz kobs” value was 0.0025 min⁻¹.

Consider `C=CC(=O)N1CC(CN2CCC(n3cc(-c4cnc5ccc(Nc6cc(OC)cc(OC)c6)cc5n4)cn3)CC2)C1` [Example 30, 1-(3-((4-(4-(7-((3,5-dimethoxyphenyl)amino)quinoxalin-2-yl)-1H-pyrazol-1-yl)piperidin-1-yl)methyl)azetidin-1-yl)prop-2-en-1-one], for which the half-inhibitory concentration (IC50) in test [1] stood at 159 nM; in test [3], 225 nM; in test [4], 24 nM. In test [2], the “FGFR1 Enz kobs” value worked out at 0.00172 min⁻¹.
